The source of these data is patent US5804410A, “Nucleic acid sequence encoding trypsin-like enzyme and process for producing the enzyme” (Teijin Limited, priority 1994, dated 1998).

“Also recorded” adds a separate entry of the source. Read-outs that look alike come from different tables or passages of the source. *1 amine or outer side, *2 acyl side, *3 side chain or, on linkers, in order; H or OH if unused. Where a SMILES comes first, the peptide text is derived from it. The star is where a group is joined. AMC = Cc1cc(=O)oc2cc(N*)ccc12; Suc = O=C(CCC(=O)[*:2])[*:1]; Boc = CC(C)(C)OC(=O)*; CO = O=C([*:1])[*:2]

In test [1] the test system is rat mast cell-derived tryptase. Nature of the test: Effect of protease inhibitors on enzymatic activity. It is filed as biochemical.
Test [2] has as its target T1, trypsin-like enzyme (Homo sapiens, UniProt O60235).
T1 construct: from tissue; host or cells: cough phlegm (sputum) of patients with chronic disease of the respiratory tract
The test is described as above. The settings on record: for inhibition at 10 µM: read-out: Inhibition (%) Trypsin-like protease (human). It is filed as biochemical.

The target in test [3] is T2, human-derived neutrophile elastase (Homo sapiens, UniProt P08246).
T2 sequence (P08246 30-267): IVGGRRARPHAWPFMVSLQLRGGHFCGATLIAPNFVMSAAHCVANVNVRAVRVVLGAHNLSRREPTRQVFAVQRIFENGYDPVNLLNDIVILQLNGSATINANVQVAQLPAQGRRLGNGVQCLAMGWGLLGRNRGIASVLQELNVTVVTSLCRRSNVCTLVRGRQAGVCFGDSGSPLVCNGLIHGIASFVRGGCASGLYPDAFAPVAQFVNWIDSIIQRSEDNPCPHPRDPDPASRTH
The description is as above. It is filed as biochemical. The settings on record: for inhibition at 10 µM: read-out: Inhibition (%) Neutrophile elastase (human).

The target of test [4] is T3, human neutrophile elastase (Homo sapiens, UniProt P08246).
T3 sequence (P08246 30-267): T2 sequence (P08246 30-267)
Nature of the test: Substrate specificity, synthetic MCA substrates. It is filed as biochemical.

Test [5] addresses T1, trypsin-like enzyme. Nature of the test: Substrate specificity, synthetic MCA substrates (assay method of trypsin activity). It is filed as biochemical. The conditions noted are these: pH 8.6, 0.1M Tris-HCl; activity on Boc-Phe-Ser-Arg-MCA taken to be 100%.
Test [6] deals with rat mast cell-derived tryptase. Nature of the test: Substrate specificity, synthetic MCA substrates. It is filed as biochemical. The conditions noted are these: activity on Suc-Phe-Ser-Arg-MCA taken to be 100%.
The target of test [7] is T1, trypsin-like enzyme. Nature of the test: Digestion of natural substrates detected by SDS-polyacrylamide gel electrophoresis. It is filed as biochemical.
Test [8] deals with Suc-Gly-Pro-Leu-Gly-Pro-MCA.
The target of test [9] is Boc-Phe-Ser-Arg-MCA.
Test [10] has as its target Suc-Ala-Pro-Ala-MCA.
The target of test [11] is Boc-Gln-Ala-Arg-MCA.
In test [12] the target is Boc-Val-Leu-Lys-MCA.
Test [13] addresses Boc-Gln-Gly-Arg-MCA.
The target of test [14] is Boc-Val-Pro-Arg-MCA.
In test [15] the target is Boc-Ile-Gln-Gly-Arg-MCA.
In test [16] the target is Suc-Ala-Ala-Pro-Phe-MCA.
Test [17] addresses trypsin-like enzyme isolated from cough phlegm of a patient suffering from a chronic respiratory apparatus disease (human).
Test [18] addresses rat mast cell-derived tryptase (rat) (UniProt P27435).
[19] abbreviates: Example 5: inhibitors 10 μM, PMSF 1 mM.
Setting [20] is: pH 8.6, activity on Suc-Ala-Pro-Ala-MCA taken to be 100%.

Chain of trypsin-like enzyme isolated from cough phlegm of a patient suffering from a chronic respiratory apparatus disease (O60235 187-418 limits assumed): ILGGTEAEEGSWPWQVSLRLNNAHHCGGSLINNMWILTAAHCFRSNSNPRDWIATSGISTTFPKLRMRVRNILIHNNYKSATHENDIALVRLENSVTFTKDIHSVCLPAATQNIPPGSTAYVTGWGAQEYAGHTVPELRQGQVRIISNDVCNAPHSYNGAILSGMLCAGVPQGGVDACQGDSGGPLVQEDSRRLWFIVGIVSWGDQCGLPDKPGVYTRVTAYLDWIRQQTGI
T1 sequence (O60235 187-418): as the sequence (O60235 187-418 limits assumed) above

Take `CC(C)C[C@@H](N)[C@H](O)C(=O)N[C@H](C(=O)N[C@H](C(=O)N[C@@H](CC(=O)O)C(=O)O)C(C)C)C(C)C` [Amastatin, amastatin]: the “Inhibition (%) Tryptase (derived from rat mast cell)” value (“Inhibition (%) Tryptase” for short) in test [1] (inhibitor 10 μM) is 6.6%. In addition, in test [2] (setting [19]), the “Inhibition of trypsin-like enzyme (in words)” value (“Inhibition … (in words)” below) is given as “not inhibited”. Besides, the inhibition at 10 µM in test [2] (inhibitor 10 μM) came out at 0%; in test [3] (inhibitor 10 μM) it was 67.6%.

Regarding `CC(C)[C@H](NC(=O)[C@H](CCCNC(=N)N)NC(=O)N[C@@H](Cc1ccccc1)C(=O)O)C(=O)N[C@H](C=O)CCCNC(=N)N` [Antipain, antipain] ({Phe-CO}-Arg-Val-Arg-aldehyde), the “Inhibition (%) Tryptase” value in [1] (10 µM) was found to be 98.2%. Moreover, in [2], the “Inhibition … (in words)” value is reported as “inhibited” and the inhibition at 10 µM came out at 78.1%. The inhibition at 10 µM in [3] was 11.1%.

For `CC(C)C[C@H](NC(=O)[C@@H](O)[C@H](N)Cc1ccccc1)C(=O)O` [Bestatin, bestatin], in test [1] (inhibitor 10 μM), the “Inhibition (%) Tryptase” value is reported as 23.4%. For the same molecule, the “Inhibition … (in words)” value in test [2] (setting [19]) is “not inhibited”. For the same molecule, the inhibition at 10 µM in [2] (inhibitor 10 μM) came to 0%; in test [3] (inhibitor 10 μM) it was 15.2%.

As for `Cc1cc(=O)oc2cc(NC(=O)[C@H](CCCNC(=N)N)NC(=O)[C@H](C)NC(=O)[C@H](CCC(N)=O)NC(=O)OC(C)(C)C)ccc12` [Boc-Gln-Ala-Arg-MCA] (Boc-Gln-Ala-Arg-{AMC}), the “Substrate digestion ratio (%) Neutrophile elastase pH 8.6” value in test [4] (setting [20]) came out at 0.3%. The “Substrate digestion ratio (%) Trypsin-like enzyme pH 8.6” value in [5] was 52.2%.

Turning to `Cc1cc(=O)oc2cc(NC(=O)[C@H](CCCNC(=N)N)NC(=O)CNC(=O)[C@H](CCC(N)=O)NC(=O)OC(C)(C)C)ccc12` [Boc-Gln-Gly-Arg-MCA] (Boc-Gln-Gly-Arg-{AMC}), the “Substrate digestion ratio (%) Neutrophile elastase pH 8.6” value in [4] (setting [20]) was 0.2%. The “Substrate digestion ratio (%) Trypsin-like enzyme pH 8.6” value in test [5] stood at 13.8%. In test [6], the “Substrate digestion ratio (%) Rat mast cell Tryptase pH 8.6” value came out at 4.6%.

In the case of `CC[C@H](C)[C@H](NC(=O)OC(C)(C)C)C(=O)N[C@@H](CCC(N)=O)C(=O)NCC(=O)N[C@@H](CCCNC(=N)N)C(=O)Nc1ccc2c(C)cc(=O)oc2c1` [Boc-Ile-Gln-Gly-Arg-MCA] (Boc-IQGR-{AMC}), the “Substrate digestion ratio (%) Neutrophile elastase pH 8.6” value in test [4] (setting [20]) was found to be 0.3%. In addition, the “Substrate digestion ratio (%) Trypsin-like enzyme pH 8.6” value in test [5] is 13.1%. The “Substrate digestion ratio (%) Rat mast cell Tryptase pH 8.6” value in [6] worked out at 149.0%.

Turning to `Cc1cc(=O)oc2cc(NC(=O)[C@H](CCCNC(=N)N)NC(=O)[C@H](CO)NC(=O)[C@H](Cc3ccccc3)NC(=O)OC(C)(C)C)ccc12` [Boc-Phe-Ser-Arg-MCA] (Boc-Phe-Ser-Arg-{AMC}), the “Substrate digestion ratio (%) Neutrophile elastase pH 8.6” value in test [4] (setting [20]) is recorded as 0.4%. For the same molecule, in [5], the “Substrate digestion ratio (%) Trypsin-like enzyme pH 8.6” value is recorded as 100%. For the same molecule, the “Substrate digestion ratio (%) Rat mast cell Tryptase pH 8.6” value in test [6] was 100%.

For `Cc1cc(=O)oc2cc(NC(=O)[C@H](CCCCN)NC(=O)[C@H](CC(C)C)NC(=O)[C@@H](NC(=O)OC(C)(C)C)C(C)C)ccc12` [Boc-Val-Leu-Lys-MCA] (Boc-Val-Leu-Lys-{AMC}), in test [4] (setting [20]), the “Substrate digestion ratio (%) Neutrophile elastase pH 8.6” value came out at 0.1%. The “Substrate digestion ratio (%) Trypsin-like enzyme pH 8.6” value in test [5] is given as 3.9%. In addition, the “Substrate digestion ratio (%) Rat mast cell Tryptase pH 8.6” value in [6] was found to be 6.1%.

Take `Cc1cc(=O)oc2cc(NC(=O)[C@H](CCCNC(=N)N)NC(=O)[C@@H]3CCCN3C(=O)[C@@H](NC(=O)OC(C)(C)C)C(C)C)ccc12` [Boc-Val-Pro-Arg-MCA] (Boc-Val-Pro-Arg-{AMC}): the “Substrate digestion ratio (%) Neutrophile elastase pH 8.6” value in test [4] (setting [20]) was found to be 0.2%. The “Substrate digestion ratio (%) Trypsin-like enzyme pH 8.6” value in test [5] stood at 74.6%. Besides, the “Substrate digestion ratio (%) Rat mast cell Tryptase pH 8.6” value in test [6] came out at 50.6%.

`Cc1cc(=O)oc2cc(NC(=O)[C@@H](N)CC(C)C)ccc12` [Leu-MCA]: the “Substrate digestion ratio (%) Neutrophile elastase pH 8.6” value in [4] (setting [20]) stood at 0.2%. Also, the “Substrate digestion ratio (%) Trypsin-like enzyme pH 8.6” value in test [5] is listed as 0%.

`CC(=O)N[C@@H](CC(C)C)C(=O)N[C@@H](CC(C)C)C(=O)N[C@H](C=O)CCCNC(=N)N` [Leupeptin, leupeptin]: in test [1] (10 µM), the “Inhibition (%) Tryptase” value was 100%. Besides, in test [2], the “Inhibition … (in words)” value was “inhibited” and the inhibition at 10 µM worked out at 82.5%. Also, the inhibition at 10 µM in test [3] was 0%.

Turning to `O=S(=O)(F)Cc1ccccc1` [PMSF, phenylmethylsulfonyl fluoride], in test [2], the “Inhibition … (in words)” value was “inhibited”. For the same molecule, in test [2] (1000 µM), the “Inhibition (%) Trypsin-like protease (human)” value was found to be 100%. Further, in test [3] (1000 µM), the “Inhibition (%) Neutrophile elastase (human)” value stood at 93.6%.

On to `Cc1cc(=O)oc2cc(NC(=O)[C@H](Cc3ccccc3)NC(=O)[C@@H]3CCCN3C(=O)[C@H](C)NC(=O)[C@H](C)NC(=O)CCC(=O)O)ccc12` [Suc-Ala-Ala-Pro-Phe-MCA] (Suc-AAPF-{AMC}), for which the “Substrate digestion ratio (%) Neutrophile elastase pH 8.6” value in [4] was found to be 0.1%. Also, the “Substrate digestion ratio (%) Trypsin-like enzyme pH 8.6” value in [5] is on record as 0%. In addition, the “Substrate digestion ratio (%) Rat mast cell Tryptase pH 8.6” value in [6] is recorded as 2.0%.

On to `Cc1cc(=O)oc2cc(NC(=O)[C@H](C)NC(=O)[C@@H]3CCCN3C(=O)[C@H](C)NC(=O)CCC(=O)O)ccc12` [Suc-Ala-Pro-Ala-MCA] (Suc-Ala-Pro-Ala-{AMC}), for which the “Substrate digestion ratio (%) Neutrophile elastase pH 8.6” value in [4] (setting [20]) is on record as 100%. The “Substrate digestion ratio (%) Trypsin-like enzyme pH 8.6” value in test [5] came out at 0%.

On to `Cc1cc(=O)oc2cc(NC(=O)[C@@H]3CCCN3C(=O)CNC(=O)[C@H](CC(C)C)NC(=O)[C@@H]3CCCN3C(=O)CNC(=O)CCC(=O)O)ccc12` [Suc-Gly-Pro-Leu-Gly-Pro-MCA] (Suc-GPLGP-{AMC}), for which the “Substrate digestion ratio (%) Neutrophile elastase pH 8.6” value in test [4] (setting [20]) is reported as 0%. Moreover, in [5], the “Substrate digestion ratio (%) Trypsin-like enzyme pH 8.6” value stood at 0%.

Regarding elastinol, the “Inhibition (%) Tryptase” value in test [1] (inhibitor 10 μM) is reported as 53.0%. Besides, the “Inhibition … (in words)” value in test [2] (setting [19]) is on record as “not inhibited”. The “Inhibition (%) Trypsin-like protease (human)” value in test [2] (inhibitor 10 μM) came out at 0%. In test [3] (inhibitor 10 μM), the “Inhibition (%) Neutrophile elastase (human)” value amounted to 0%.

Consider fibrinogen, for which the “Digestion of natural substrate by trypsin-like enzyme” value (“Digestion of natural substrate” for short) in test [7] is listed as “specifically digested; also recorded: digests”.

With “human neutrophile elastase (from UniProt P08246) (enzyme)”, the Substrate digestion ratio (%) in test [8] is 0%; in test [9], 0.4%; in test [10], 100%; in test [11], 0.3%; in test [12], 0.1%; in test [13], 0.2%. Besides, the results for the Substrate digestion ratio (%) in test [14], in test [15] and in test [16] were 0.2%, 0.3% and 0.1%, respectively.

As to “rat mast cell-derived tryptase (from UniProt P27435) (enzyme)”, the Substrate digestion ratio (%) in test [9] is 100%; in [12] it was 6.1%; in test [13], 4.6%; in [14] it was 50.6%; in [15] it was 149%; in [16], 2%.

As to substance P, the “Digestion of natural substrate” value in [7] is recorded as “not digested; also recorded: does not digest”.

“trypsin-like enzyme isolated from cough phlegm of a patient suffering from a chronic respiratory apparatus disease”: the Substrate digestion ratio (%) came to 0% in test [8]; 100% in test [9]; 0% in test [10]; 52.2% in test [11]; 3.9% in test [12]; 13.8% in test [13]. In addition, the Substrate digestion ratio (%) in test [14] was determined as 74.6%; in [15], 13.1%; in test [16] it was 0%.

As for vasoactive intestinal peptide [VIP], the “Digestion of natural substrate” value in test [7] is on record as “specifically digested; also recorded: digests”.

Regarding α1-antitrypsin, the results for the Inhibition (%) in test [17] and in test [18] were 23.5% and 66.3%, respectively.

For “α-1-antitrypsin: a blood protease inhibitor; also used as natural substrate”, in test [1] (10 µM), the “Inhibition (%) Tryptase” value turned out to be 66.3%. Also, the “Digestion of natural substrate” value in test [7] is “does not digest”; in test [7] (listed as al-antitrypsin) it was “not digested”. Further, the “Inhibition … (in words)” value in test [2] (setting [19]) is reported as “inhibited”. Moreover, the “Inhibition (%) Trypsin-like protease (human)” value in test [2] (inhibitor 10 μM) stood at 23.5%.
